Laboratory results published in patent publication US12559529B2, “NPY2 receptor agonists” (Boehringer Ingelheim International GmbH, priority 2019, dated 2026).
*1 amine or outer side, *2 acyl side, *3 side chain or, on linkers, in order; H or OH if unused. Where a SMILES comes first, the peptide text is derived from it. Side-chain parts run from the residue outwards. The star is where a group is joined. C18 diacid = O=C(O)CCCCCCCCCCCCCCCCC(=O)*; γGlu = O=C(O)[C@H](CCC(=O)[*:2])N[*:1]; Isovaleryl = CC(C)CC(=O)*; AEEA = NCCOCCOCC(=O)O

Target: T1, Human Neuropeptide Y2 Receptor (Homo sapiens, UniProt P49146)
T1 construct: purchased CHEMICON HTS066M
T1 sequence (P49146 1-381): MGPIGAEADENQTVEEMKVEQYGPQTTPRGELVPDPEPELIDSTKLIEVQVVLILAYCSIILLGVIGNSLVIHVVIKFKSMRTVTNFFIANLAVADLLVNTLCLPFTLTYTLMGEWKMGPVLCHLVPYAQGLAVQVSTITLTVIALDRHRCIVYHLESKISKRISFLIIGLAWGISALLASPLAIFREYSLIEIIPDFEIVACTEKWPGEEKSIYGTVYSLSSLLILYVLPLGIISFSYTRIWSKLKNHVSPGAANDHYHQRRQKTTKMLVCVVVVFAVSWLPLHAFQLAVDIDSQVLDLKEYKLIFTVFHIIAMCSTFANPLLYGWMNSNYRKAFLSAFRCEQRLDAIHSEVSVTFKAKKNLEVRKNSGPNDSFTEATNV
Experiment: Radioligand binding competition assay (RLB)
Conditions: Table 3; human 125I-PYY (1-36) 0.02 nM, Y2 receptor membranes; read-out: Ki
Outline: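 Membranes from cells expressing human Y2 receptor (0.5 μg protein/well) were incubated with radioligand and serially diluted peptides in 50 mM HEPES, 5 mM MgCl2, 1 mM CaCl2, 0.2% ovalbumin, pH 7.4, for 2 h at room temperature with shaking. Bound radioactivity was collected by filtration and counted; IC50 from sigmoidal nonlinear regression.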

Structure (SMILES) | Ki [nM]
CC(C)CC(=O)N[C@@H](C)C(=O)N1CCC[C@H]1C(=O)N[C@@H](CCC(=O)O)C(=O)N[C@@H](CCCCNC(=O)COCCOCCNC(=O)COCCOCCNC(=O)CC[C@H](NC(=O)CCCCCCCCCCCCCCCCC(=O)O)C(=O)O)C(=O)N1CCC[C@H]1C(=O)N[C@@H](CCC(=O)O)C(=O)N[C@@H](CCC(=O)O)C(=O)N[C@@H](C)C(=O)N[C@@H](C)C(=O)N[C@@H](CO)C(=O)N1CCC[C@H]1C(=O)N[C@@H](CCC(=O)O)C(=O)N[C@@H](CCC(=O)O)C(=O)N[C@@H](CC(C)C)C(=O)N[C@@H](CCC(=O)O)C(=O)N[C@@H](CCC(N)=O)C(=O)N[C@@H](Cc1ccc(O)cc1)C(=O)N[C@@H](Cc1ccc(O)cc1)C(=O)N[C@H](C(=O)N[C@@H](CO)C(=O)N[C@@H](CC(C)C)C(=O)N[C@@H](CCCNC(=N)N)C(=O)N[C@@H](Cc1c[nH]cn1)C(=O)N[C@@H](Cc1ccc(O)cc1)C(=O)N[C@@H](Cc1ccc(O)cc1)C(=O)N[C@@H](CC(N)=O)C(=O)N[C@@H](Cc1c[nH]c2ccccc12)C(=O)N[C@@H](CC(C)C)C(=O)N[C@H](C(=O)N[C@@H](CCCNC(=N)N)C(=O)N[C@@H](CCC(N)=O)C(=O)N[C@@H](CCCNC(=N)N)C(=O)N[C@@H](Cc1ccc(O)cc1)C(N)=O)[C@@H](C)O)C(C)C [Compound 60, N{alpha-4}-(3-methylbutanoyl)-N{epsilon-7}-[2-(2-{2-[2-(2-{2-[(4S)-4-carboxy-4-(17-carboxyheptadecanamido)butanamido]ethoxy}ethoxy)acetamido]ethoxy}ethoxy)acetamido]-[4A,7K,9E,11A,18E,19Q,22V,28Y,30W,31L]hPYY (4-36)] (Isovaleryl-APEK([AEEA-AEEA-γGlu-C18 diacid])PEEAASPEELEQYYVSLRHYYNWLTRQRY-NH2) | 5.95
CC(C)CC(=O)N[C@@H](C)C(=O)N1CCC[C@H]1C(=O)N[C@@H](CCC(=O)O)C(=O)N[C@@H](CCCCNC(=O)COCCOCCNC(=O)COCCOCCNC(=O)CC[C@H](NC(=O)CCCCCCCCCCCCCCCCC(=O)O)C(=O)O)C(=O)N1CCC[C@H]1C(=O)N[C@@H](CCC(=O)O)C(=O)N[C@@H](CCC(=O)O)C(=O)N[C@@H](CC(=O)O)C(=O)N[C@@H](C)C(=O)N[C@@H](CO)C(=O)N1CCC[C@H]1C(=O)N[C@@H](CCC(=O)O)C(=O)N[C@@H](CCC(=O)O)C(=O)N[C@@H](CC(C)C)C(=O)N[C@@H](CCC(N)=O)C(=O)N[C@@H](CCCNC(=N)N)C(=O)N[C@@H](Cc1ccc(O)cc1)C(=O)N[C@@H](Cc1ccc(O)cc1)C(=O)N[C@H](C(=O)N[C@@H](CO)C(=O)N[C@@H](CC(C)C)C(=O)N[C@@H](CCCNC(=N)N)C(=O)N[C@@H](C)C(=O)N[C@@H](Cc1ccc(O)cc1)C(=O)N[C@@H](Cc1ccc(O)cc1)C(=O)N[C@@H](CC(N)=O)C(=O)N[C@@H](Cc1c[nH]c2ccccc12)C(=O)N[C@@H](CC(C)C)C(=O)N[C@H](C(=O)N[C@@H](CCCNC(=N)N)C(=O)N[C@@H](CCC(N)=O)C(=O)N[C@@H](CCCNC(=N)N)C(=O)N[C@@H](Cc1ccc(O)cc1)C(N)=O)[C@@H](C)O)C(C)C [Compound 63, N{alpha-4}-(3-methylbutanoyl)-N{epsilon-7}-[2-(2-{2-[2-(2-{2-[(4S)-4-carboxy-4-(17-carboxyheptadecanamido)butanamido]ethoxy}ethoxy)acetamido]ethoxy}ethoxy)acetamido]-[4A,7K,9E,18Q,22V,26A,28Y,30W,31L]hPYY (4-36)] | 3.13
CC(C)CC(=O)N[C@@H](C)C(=O)N1CCC[C@H]1C(=O)N[C@@H](CCC(=O)O)C(=O)N[C@@H](CCCCNC(=O)COCCOCCNC(=O)COCCOCCNC(=O)CC[C@H](NC(=O)CCCCCCCCCCCCCCCCC(=O)O)C(=O)O)C(=O)N1CCC[C@H]1C(=O)N[C@@H](CCC(=O)O)C(=O)N[C@@H](CCC(=O)O)C(=O)N[C@@H](CC(=O)O)C(=O)N[C@@H](CO)C(=O)N[C@@H](C)C(=O)N1CCC[C@H]1C(=O)N[C@@H](CCC(=O)O)C(=O)N[C@@H](CCC(=O)O)C(=O)N[C@@H](CC(C)C)C(=O)N[C@@H](CCC(N)=O)C(=O)N[C@@H](CCCNC(=N)N)C(=O)N[C@@H](Cc1ccc(O)cc1)C(=O)N[C@@H](Cc1ccc(O)cc1)C(=O)N[C@H](C(=O)N[C@@H](CO)C(=O)N[C@@H](CC(C)C)C(=O)N[C@@H](CCCNC(=N)N)C(=O)N[C@@H](Cc1c[nH]cn1)C(=O)N[C@@H](Cc1ccc(O)cc1)C(=O)N[C@@H](Cc1ccc(O)cc1)C(=O)N[C@@H](CC(N)=O)C(=O)N[C@@H](Cc1c[nH]c2ccccc12)C(=O)N[C@@H](CC(C)C)C(=O)N[C@H](C(=O)N[C@@H](CCCNC(=N)N)C(=O)N[C@@H](CCC(N)=O)C(=O)N[C@@H](CCCNC(=N)N)C(=O)N[C@@H](Cc1ccc(O)cc1)C(N)=O)[C@@H](C)O)C(C)C [Compound 67, N{alpha-4}-(3-methylbutanoyl)-N{epsilon-7}-[2-(2-{2-[2-(2-{2-[(4S)-4-carboxy-4-(17-carboxyheptadecanamido)butanamido]ethoxy}ethoxy)acetamido]ethoxy}ethoxy)acetamido]-[4A,7K,9E,12S,13A,18Q,22V,28Y,30W,31L]hPYY (4-36)] | 4.37

Continued by falling Ki, values first:

Ki [nM] | Structure (SMILES)
1.02 | CC[C@H](C)[C@H](NC(=O)[C@H](CCC(=O)O)NC(=O)[C@@H](NC(=O)[C@H](Cc1ccc(O)cc1)NC(=O)[C@H](Cc1ccc(O)cc1)NC(=O)[C@H](CCCNC(=N)N)NC(=O)[C@H](CCC(N)=O)NC(=O)[C@H](CC(C)C)NC(=O)[C@H](CCC(=O)O)NC(=O)[C@H](CCC(=O)O)NC(=O)[C@@H]1CCCN1C(=O)[C@H](CO)NC(=O)[C@H](C)NC(=O)[C@H](CC(=O)O)NC(=O)[C@H](CCC(=O)O)NC(=O)[C@H](CCC(=O)O)NC(=O)[C@@H]1CCCN1C(=O)[C@H](CCCCNC(=O)COCCOCCNC(=O)COCCOCCNC(=O)CC[C@H](NC(=O)CCCCCCCCCCCCCCCCC(=O)O)C(=O)O)NC(=O)[C@H](CCC(=O)O)NC(=O)[C@@H]1CCCN1C(=O)[C@H](C)NC(=O)CC(C)C)C(C)C)C(=O)N[C@@H](CCCNC(=N)N)C(=O)N[C@@H](Cc1c[nH]cn1)C(=O)N[C@@H](Cc1ccc(O)cc1)C(=O)N[C@@H](Cc1ccc(O)cc1)C(=O)N[C@@H](CC(N)=O)C(=O)N[C@@H](Cc1c[nH]c2ccccc12)C(=O)N[C@@H](CC(C)C)C(=O)N[C@H](C(=O)N[C@@H](CCCNC(=N)N)C(=O)N[C@@H](CCC(N)=O)C(=O)N[C@@H](CCCNC(=N)N)C(=O)N[C@@H](Cc1ccc(O)cc1)C(N)=O)[C@@H](C)O [Compound 65, N{alpha-4}-(3-methylbutanoyl)-N{epsilon-7}-[2-(2-{2-[2-(2-{2-[(4S)-4-carboxy-4-(17-carboxyheptadecanamido)butanamido]ethoxy}ethoxy)acetamido]ethoxy}ethoxy)acetamido]-[4A,7K,9E,18Q,22V,23E,24I,28Y,30W,31L]hPYY (4-36)]
0.4 | CC[C@H](C)[C@H](NC(=O)[C@H](CCC(=O)O)NC(=O)[C@H](CCC(=O)O)NC(=O)[C@@H]1CCCN1C(=O)[C@H](CO)NC(=O)[C@H](C)NC(=O)[C@H](CC(=O)O)NC(=O)[C@H](CCC(=O)O)NC(=O)[C@@H]1CCCN1C(=O)[C@@H]1CCCN1C(=O)[C@H](CCCCNC(=O)COCCOCCNC(=O)COCCOCCNC(=O)CC[C@H](NC(=O)CCCCCCCCCCCCCCCCC(=O)O)C(=O)O)NC(=O)[C@H](CCC(=O)O)NC(=O)[C@@H]1CCCN1C(=O)[C@H](C)NC(=O)CC(C)C)C(=O)N[C@@H](CCC(N)=O)C(=O)N[C@@H](CCCNC(=N)N)C(=O)N[C@@H](Cc1ccc(O)cc1)C(=O)N[C@@H](Cc1ccc(O)cc1)C(=O)N[C@H](C(=O)N[C@@H](CO)C(=O)N[C@@H](CC(C)C)C(=O)N[C@@H](CCCNC(=N)N)C(=O)N[C@@H](Cc1c[nH]cn1)C(=O)N[C@@H](Cc1ccc(O)cc1)C(=O)N[C@@H](Cc1ccc(O)cc1)C(=O)N[C@@H](CC(N)=O)C(=O)N[C@@H](Cc1c[nH]c2ccccc12)C(=O)N[C@@H](CC(C)C)C(=O)N[C@H](C(=O)N[C@@H](CCCNC(=N)N)C(=O)N[C@@H](CCC(N)=O)C(=O)N[C@@H](CCCNC(=N)N)C(=O)N[C@@H](Cc1ccc(O)cc1)C(N)=O)[C@@H](C)O)C(C)C [Compound 61, N{alpha-4}-(3-methylbutanoyl)-N{epsilon-7}-[2-(2-{2-[2-(2-{2-[(4S)-4-carboxy-4-(17-carboxyheptadecanamido)butanamido]ethoxy}ethoxy)acetamido]ethoxy}ethoxy)acetamido]-[4A,7K,9P,17I,18Q,22V,28Y,30W,31L]hPYY (4-36)]
